These results are taken from patent US8809342B2, “Glucagon receptor modulators” (Pfizer Inc., priority 2010, dated 2014).

In the assay the target is T1, human glucagon receptor (Homo sapiens, UniProt P47871).
T1 construct: expressed in transfected cells; host or cells: CHO-K1 cells, stably transfected
Put plainly: Glucagon cAMP assay (Cisbio cAMP detection). In kind it is cell-based. Here is the method: The Cisbio cAMP detection assay is used to determine the ability of punitive glucagon antagonist to block glucagon induced cAMP production. Potential glucagon antagonists are re-suspended and diluted in 100% DMSO. Prior to use in the Glucagon cAMP assay 100×DMSO compound stocks are diluted 20× with DMEM-F12 media (Invitrogen) containing either 0.1% or 4% BSA. 2 uls of 5× compound stocks are spotted into the appropriate wells of low binding white solid bottom 384 well plates (Corning). 2 uls of 5% DMSO or known glucagon antagonist are added to each plate to define the assay window. CHOK1 cells stably transfected with the human glucagon receptor are removed from culture flasks with cell dissociation buffer. Cell pellets are re-suspended, at a concentration of 8.3e^5 cells/ml in DMEM-F12 with or without 4% BSA and 200 uM IBMX. 6 uls of cell suspensions are added to the assay plates. Plates are incubated for 20 min at room temperature prior to the addition of a 100 pM challenge dose of glucagon. On a separate plate glucagon dose response curves are run to determine the EC50 of glucagon. After a 30 min room temperature incubation the reaction is terminated by the addition of lysis buffer containing the cAMP detection reagents. Plates are incubated for an additional 60 min at room temperature prior to being read on the Perkin Elmer fluorescent plate reader. Raw is converted to nM of cAMP produced based on a cAMP standard curve. Converted data is then analyzed using the Pfizer data analysis program. IC50 values are determined from the generated sigmoidal dose response curves. Kb values are the calculated using a modified Cheng-Prusoff equation.

The structures appear in SMILES notation.

T1 sequence (P47871 26-477): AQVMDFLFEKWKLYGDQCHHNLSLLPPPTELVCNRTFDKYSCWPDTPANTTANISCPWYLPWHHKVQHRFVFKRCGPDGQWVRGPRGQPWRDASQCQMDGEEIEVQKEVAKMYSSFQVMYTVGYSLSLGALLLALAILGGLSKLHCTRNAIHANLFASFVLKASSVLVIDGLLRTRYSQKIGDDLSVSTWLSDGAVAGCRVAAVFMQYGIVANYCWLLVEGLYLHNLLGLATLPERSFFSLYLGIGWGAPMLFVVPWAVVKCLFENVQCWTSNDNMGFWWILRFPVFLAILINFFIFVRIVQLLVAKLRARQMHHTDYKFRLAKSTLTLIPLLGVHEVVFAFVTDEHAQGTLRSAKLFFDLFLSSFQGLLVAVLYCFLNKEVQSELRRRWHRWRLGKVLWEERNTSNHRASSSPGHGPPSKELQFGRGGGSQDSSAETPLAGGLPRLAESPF

`CCC(Nc1cnc(-c2ccc(C(F)(F)F)cc2)c(C)c1)c1ccc(C(=O)NCCC(=O)O)cn1` (racemic) [Example 2.11, (+/−)-3-(6-(1-(5-methyl-6-(4-(trifluoromethyl)phenyl)pyridin-3-ylamino)propyl)nicotinamido)propanoic acid] returned a Kb of 1.8 µM. Next, `CC(C)CC(Nc1ccc(-c2ccc(C(F)(F)F)cc2)cc1)c1ccc(C(=O)NCc2nnn[nH]2)cn1` (racemic) [Example 2.12, (+/−)-N-((1H-tetrazol-5-yl)methyl)-6-(3-methyl-1-(4′-(trifluoromethyl)biphenyl-4-ylamino)butyl)nicotinamide]: 0.73 µM.

Turning to `CC(C)CC(Nc1ccc(-c2ccc(C(F)(F)F)cc2)cc1)c1ccc(C(=O)Nc2nn[nH]n2)cn1` (racemic) [Example 2.13, (+/−)-6-(3-methyl-1-(4′-(trifluoromethyl)biphenyl-4-ylamino)butyl)-N-(2H-tetrazol-5-yl)nicotinamide], the Kb worked out at 1.9 µM. Compound `CCCC(Nc1ccc(-c2ccc(C(F)(F)F)cc2)nn1)c1ccc(C(=O)NCCC(=O)O)cc1` (racemic) [Example 2.14, (+/−)-3-(4-(1-(6-(4-(trifluoromethyl)phenyl)pyridazin-3-ylamino)butyl)benzamido)propanoic acid] had a Kb of 0.29 µM. Turning to `CCCC(Nc1cnc(-c2ccc(C(F)(F)F)cc2)nc1)c1ccc(C(=O)NCCC(=O)O)cc1` (racemic) [Example 2.15, (+/−)-3-(4-(1-(2-(4-(trifluoromethyl)phenyl)pyrimidin-5-ylamino)butyl)benzamido)propanoic acid], the Kb amounted to 0.12 µM. Next, `CC(C)CC(Oc1ccc(-c2ccc(C(F)(F)F)cc2)cc1)c1ccc(C(=O)NCCC(=O)O)cn1` (racemic) [Example 3.1, (+/−)-3-(6-(3-methyl-1-(4′-(trifluoromethyl)biphenyl-4-Yloxy)butyl)nicotinamido)propanoic acid]: 1.5 µM; `CC(C)CC(Oc1ccc(C(=O)NCCC(=O)O)cn1)c1ccc(-c2ccc(C(F)(F)F)cc2)cc1` (racemic) [Example 3.2, (+/−)-3-(6-(3-methyl-1-(4′-(trifluoromethyl)biphenyl-4-yl)butoxy)nicotinamido)propanoic acid]: 1.9 µM; `CC(Oc1ccc(-c2ccc(C(F)(F)F)cc2)cc1)c1ccc(C(=O)NCCC(=O)O)cn1` (racemic) [Example 3.3, (+/−)-3-(6-(1-(4′-(trifluoromethyl)biphenyl-4-yloxy)ethyl)nicotinamido) propanoic acid]: 6 µM.

Consider `O=C(O)CCNC(=O)c1ccc(NC(c2cnc(-c3ccc(C(F)(F)F)cc3)nc2)C2CCCCC2)nc1` (racemic) [Example 4.2, (+/−)-N-({6-[(cyclohexyl{2-[4-(trifluoromethyl)phenyl]pyrimidin-5-yl}methyl)amino]pyridin-3-yl}carbonyl)-beta-alanine], for which the Kb was 0.031 µM. Next, `CCCC(Nc1cnc(-c2ccc(C(F)(F)F)cc2)cn1)c1ccc(C(=O)NCCC(=O)O)cc1` (racemic) [Example 4.3, (±)-3-(4-(1-((5-(4-(trifluoromethyl)phenyl)pyrazin-2-yl)amino)butyl)benzamido)propanoic acid]: 0.099 µM; `O=C(O)CCNC(=O)c1ccc(NC(c2ccc(-c3ccc(C(F)(F)F)cc3)cc2)C2CCOCC2)nc1` (racemic) [Example 4.7, (±)-3-(6-(((tetrahydro-2H-pyran-4-yl)(4′-(trifluoromethyl)-[1,1′-biphenyl]-4-yl)methyl)amino)nicotinamido)propanoic acid]: 0.22 µM. In the case of `CCCC(Nc1ccc(C(=O)NCCC(=O)O)cn1)c1ccc(-c2ccc(C(F)(F)F)cc2)c(C#N)c1` (racemic) [Example 4.8, (±)-3-(6-((1-(2-cyano-4′-(trifluoromethyl)-[1,1′-biphenyl]-4-yl)butyl)amino)nicotinamido)propanoic acid] it was 0.2 µM; in that of `O=C(O)CCNC(=O)c1ccc(NC(CCC(F)(F)F)c2ccc(-c3ccc(C(F)(F)F)cc3)cc2)nc1` (racemic) [Example 4.13, (+/−)-3-(6-(4,4,4-trifluoro-1-(4′-(trifluoromethyl)biphenyl-4-yl)butylamino)nicotinamido)propanoic acid], 0.7 µM; in that of `CC(C)CC(Nc1ccc(C(=O)NCCC(=O)O)cn1)c1ccc(-c2ccc(C(F)(F)F)cn2)cc1` (racemic) [Example 4.22, (+/−)-3-(6-(3-methyl-1-(4-(5-(trifluoromethyl)pyridin-2-yl)phenyl)butylamino)nicotinamido)propanoic acid], 0.053 µM.

In turn, `CC(C)CC(Nc1ccc(C(=O)N(C)CCC(=O)O)cn1)c1ccc(-c2ccc(C(F)(F)F)cc2)cc1` (single isomer, unassigned) [Example 4.6, 3-(N-methyl-6-((3-methyl-1-(4′-(trifluoromethyl)-[1,1′-biphenyl]-4-yl)butyl)amino)nicotinamido)propanoic acid (single enantiomer)] had a Kb of 0.053 µM. Compound `CC(C)C(Nc1ccc(C(=O)NCCC(=O)O)cn1)c1ccc(-c2ccc(C(F)(F)F)cc2)cc1` (single isomer, unassigned; (+)) [Example 1.14, (+)-3-(6-(2-methyl-1-(4′-(trifluoromethyl)biphenyl-4-yl)propylamino)nicotinamido)propanoic acid] yielded a Kb of 0.99 µM.

`CC(C)C(Nc1ccc(C(=O)NCCC(=O)O)cn1)c1ccc(-c2ccc(C(F)(F)F)cc2)cc1` (single isomer, unassigned; (-)) [Example 1.15, (−)-3-(6-(2-methyl-1-(4′-(trifluoromethyl)biphenyl-4-yl)propylamino)nicotinamido) propanoic acid] gave a Kb of 0.078 µM.

`CC(C)CC(Nc1ncc(C(=O)NCCC(=O)O)cn1)c1ccc(-c2ccc(C(F)(F)F)cc2)cc1` (single isomer, unassigned; isomer 1) [Example 1.5, 3-(2-(3-methyl-1-(4′-(trifluoromethyl)biphenyl-4-yl)butylamino)pyrimidine-5-carboxamido)propanoic acid, Isomer 1] came in with a Kb of 2.9 µM.

With `CCCC(Nc1ccc(C(=O)NCCC(=O)O)cn1)c1ccc(-c2ccc(C(F)(F)F)cc2)cc1` (single isomer, unassigned; isomer 1) [Example 1.8, 3-(6-(1-(4′-(trifluoromethyl)biphenyl-4-yl)butylamino)nicotinamido) propanoic acid, Isomer 1], the Kb came out at 1 µM. In the case of `CCC(Nc1ccc(C(=O)NCCC(=O)O)cn1)c1ccc(-c2ccc(C(F)(F)F)cc2)cc1` (single isomer, unassigned; isomer 1) [Example 1.12, 3-(6-(1-(4′-(trifluoromethyl)biphenyl-4-yl)propylamino)nicotinamido) propanoic acid, Isomer 1] it was 0.56 µM; in that of `CC(C)CC(Nc1cnc(C(=O)NCCC(=O)O)cn1)c1ccc(-c2ccc(C(F)(F)F)cc2)cc1` (single isomer, unassigned; isomer 1) [Example 1.17, 3-(5-(3-methyl-1-(4′-(trifluoromethyl)biphenyl-4-yl)butylamino)pyrazine-2-carboxamido)propanoic acid, Isomer 1], 1.1 µM.
